ChEMBL document CHEMBL1201862, “PubChem BioAssay data set” (2004)
Active and inactive are the calls of the source.

What was measured:
[1] = Counterscreen for activators of the function of SWI/SNF related, matrix associated, actin dependent regulator of chromatin, subfamily a, member 2 (SMARCA2, BRM): Luminescence-based cell-based high throughput dose response assay to identify non-selective compounds using the VP16 reporter assay.; type: functional
Vero = assay: cells; type: functional; conditions: Chlorocebus sabaeus
[2] = target: T1, Mitochondrial peptide methionine sulfoxide reductase (Bos taurus, UniProt P54149); assay: Absorbance-based biochemical high throughput dose response assay for activators of Methionine sulfoxide reductase A (MsrA).; type: functional
T1 sequence (P54149 whole entry): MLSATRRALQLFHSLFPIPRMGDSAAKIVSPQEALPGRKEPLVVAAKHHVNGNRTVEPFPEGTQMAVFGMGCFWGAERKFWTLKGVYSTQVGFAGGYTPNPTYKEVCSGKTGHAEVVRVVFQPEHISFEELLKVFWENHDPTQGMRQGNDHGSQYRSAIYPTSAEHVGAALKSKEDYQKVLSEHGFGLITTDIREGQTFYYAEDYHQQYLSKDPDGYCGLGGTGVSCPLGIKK

[3] = target: SWI/SNF-related matrix-associated actin-dependent regulator of chromatin subfamily A member 2 (Homo sapiens, UniProt P51531); assay: Luminescence-based cell-based high throughput dose response assay to identify activators of the function of SWI/SNF related, matrix associated, actin dependent regulator of chromatin, subfamily a, member 2 (SMARCA2, BRM).; type: functional
Sequence of SWI/SNF-related matrix-associated actin-dependent regulator of chromatin subfamily A member 2 (P51531 whole entry): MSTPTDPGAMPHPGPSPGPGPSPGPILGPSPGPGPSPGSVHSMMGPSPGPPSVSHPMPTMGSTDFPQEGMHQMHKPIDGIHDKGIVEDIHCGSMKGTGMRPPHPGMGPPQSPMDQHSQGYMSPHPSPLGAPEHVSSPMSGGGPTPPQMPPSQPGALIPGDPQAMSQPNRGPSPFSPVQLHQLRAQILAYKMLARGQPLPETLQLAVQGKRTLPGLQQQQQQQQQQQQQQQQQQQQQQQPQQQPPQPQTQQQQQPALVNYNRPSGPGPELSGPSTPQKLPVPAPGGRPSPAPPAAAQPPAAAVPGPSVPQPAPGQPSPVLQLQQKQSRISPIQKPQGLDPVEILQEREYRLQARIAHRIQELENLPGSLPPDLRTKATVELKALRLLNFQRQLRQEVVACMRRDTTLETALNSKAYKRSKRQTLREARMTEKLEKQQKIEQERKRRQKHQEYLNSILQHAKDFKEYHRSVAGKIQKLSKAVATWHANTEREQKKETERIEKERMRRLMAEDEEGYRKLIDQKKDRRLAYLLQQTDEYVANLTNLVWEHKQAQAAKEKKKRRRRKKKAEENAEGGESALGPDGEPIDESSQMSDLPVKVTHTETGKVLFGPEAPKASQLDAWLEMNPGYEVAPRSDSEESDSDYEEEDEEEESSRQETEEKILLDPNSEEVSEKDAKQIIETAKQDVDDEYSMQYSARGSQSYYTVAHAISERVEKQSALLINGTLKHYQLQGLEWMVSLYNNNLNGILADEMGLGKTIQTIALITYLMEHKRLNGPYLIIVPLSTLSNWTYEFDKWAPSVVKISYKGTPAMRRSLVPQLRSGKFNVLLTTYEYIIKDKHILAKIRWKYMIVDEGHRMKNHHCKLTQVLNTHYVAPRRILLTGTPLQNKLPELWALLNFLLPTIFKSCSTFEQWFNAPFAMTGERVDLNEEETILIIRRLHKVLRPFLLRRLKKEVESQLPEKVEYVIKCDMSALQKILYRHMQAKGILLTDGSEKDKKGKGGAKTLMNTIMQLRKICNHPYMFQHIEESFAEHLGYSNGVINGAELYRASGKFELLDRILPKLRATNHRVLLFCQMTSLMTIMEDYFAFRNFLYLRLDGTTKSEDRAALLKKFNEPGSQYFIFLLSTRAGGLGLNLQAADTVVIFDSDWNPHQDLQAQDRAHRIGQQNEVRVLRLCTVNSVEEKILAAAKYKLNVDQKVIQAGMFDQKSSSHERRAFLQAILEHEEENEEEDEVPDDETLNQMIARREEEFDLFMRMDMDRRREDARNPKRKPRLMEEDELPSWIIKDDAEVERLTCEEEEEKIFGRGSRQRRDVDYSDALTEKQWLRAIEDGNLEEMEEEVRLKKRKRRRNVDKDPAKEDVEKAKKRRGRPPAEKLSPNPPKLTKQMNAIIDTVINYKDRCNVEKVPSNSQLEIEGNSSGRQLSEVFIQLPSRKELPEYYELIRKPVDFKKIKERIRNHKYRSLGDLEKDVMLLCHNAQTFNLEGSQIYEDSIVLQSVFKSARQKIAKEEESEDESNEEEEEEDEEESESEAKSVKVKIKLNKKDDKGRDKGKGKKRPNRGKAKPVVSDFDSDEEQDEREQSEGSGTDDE

[4] = target: T2, Sentrin-specific protease 1 (Homo sapiens, UniProt Q9P0U3); assay: potency of human SENP1 inhibitors, dose response, biochemical, kinetic FRET (AID 651697); type: functional; conditions: read-out: IC50_Mean
T2 sequence (Q9P0U3 whole entry): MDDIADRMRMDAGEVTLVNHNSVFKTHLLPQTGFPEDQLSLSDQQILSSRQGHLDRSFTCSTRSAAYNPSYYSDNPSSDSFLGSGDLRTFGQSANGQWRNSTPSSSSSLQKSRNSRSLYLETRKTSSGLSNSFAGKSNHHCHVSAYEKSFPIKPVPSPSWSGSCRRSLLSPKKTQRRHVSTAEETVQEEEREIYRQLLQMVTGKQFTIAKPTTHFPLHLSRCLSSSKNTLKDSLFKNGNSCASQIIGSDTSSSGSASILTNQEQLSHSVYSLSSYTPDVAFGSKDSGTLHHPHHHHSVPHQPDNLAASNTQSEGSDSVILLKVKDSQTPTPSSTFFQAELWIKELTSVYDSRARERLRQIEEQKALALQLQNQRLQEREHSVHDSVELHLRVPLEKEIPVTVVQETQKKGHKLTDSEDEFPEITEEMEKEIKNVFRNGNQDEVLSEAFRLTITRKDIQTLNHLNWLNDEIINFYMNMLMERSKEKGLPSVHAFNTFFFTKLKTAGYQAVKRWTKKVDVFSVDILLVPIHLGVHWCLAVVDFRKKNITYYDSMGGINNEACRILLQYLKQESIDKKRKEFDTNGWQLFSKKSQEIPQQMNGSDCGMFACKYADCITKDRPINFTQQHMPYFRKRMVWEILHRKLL

[5] = target: T2, Sentrin-specific protease 1; assay: Dose response confirmation of small molecule inhibitors of the catalytic domain of the SUMO protease, SENP1 in a FRET assay.; type: functional; conditions: read-out: IC50_Mean
[6] = target: Long-chain-fatty-acid--AMP ligase FadD28 (Mycobacterium tuberculosis, UniProt P9WQ59); assay: Fluorescence polarization aasay to screen for inhibitors that compete for the binding of FadD28 to a bisubstrate Measured in Biochemical System Using Plate Reader - 2147-01_Inhibitor_Dose_CherryPick_Activity.; type: functional, Mycobacterium tuberculosis H37Rv
Sequence of Long-chain-fatty-acid--AMP ligase FadD28 (P9WQ59 whole entry, the tested form may be a part): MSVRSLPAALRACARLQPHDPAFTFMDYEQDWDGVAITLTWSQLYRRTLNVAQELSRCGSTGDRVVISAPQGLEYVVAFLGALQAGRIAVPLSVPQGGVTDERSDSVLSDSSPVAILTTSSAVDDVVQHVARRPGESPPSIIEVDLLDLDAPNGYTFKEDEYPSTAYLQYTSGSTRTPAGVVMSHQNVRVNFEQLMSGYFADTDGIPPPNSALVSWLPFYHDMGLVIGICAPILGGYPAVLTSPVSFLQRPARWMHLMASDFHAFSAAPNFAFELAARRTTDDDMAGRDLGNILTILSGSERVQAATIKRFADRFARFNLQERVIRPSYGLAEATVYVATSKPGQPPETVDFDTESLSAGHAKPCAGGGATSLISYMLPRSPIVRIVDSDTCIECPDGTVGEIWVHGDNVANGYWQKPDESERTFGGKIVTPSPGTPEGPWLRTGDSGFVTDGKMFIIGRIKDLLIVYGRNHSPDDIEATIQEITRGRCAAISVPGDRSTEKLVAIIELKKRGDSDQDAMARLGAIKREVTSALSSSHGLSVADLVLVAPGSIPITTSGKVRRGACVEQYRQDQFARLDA

[7] = target: Arf-GAP with SH3 domain, ANK repeat and PH domain-containing protein 1 (Homo sapiens, UniProt Q9ULH1); type: functional;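 further: biochemical fluorescence polarization dose–response screen measuring inhibition of ASAP1; ASAP1 GAP domain stimulating GTP hydrolysis by truncated human ARF1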
Sequence of Arf-GAP with SH3 domain, ANK repeat and PH domain-containing protein 1 (Q9ULH1 whole entry, the tested form may be a part): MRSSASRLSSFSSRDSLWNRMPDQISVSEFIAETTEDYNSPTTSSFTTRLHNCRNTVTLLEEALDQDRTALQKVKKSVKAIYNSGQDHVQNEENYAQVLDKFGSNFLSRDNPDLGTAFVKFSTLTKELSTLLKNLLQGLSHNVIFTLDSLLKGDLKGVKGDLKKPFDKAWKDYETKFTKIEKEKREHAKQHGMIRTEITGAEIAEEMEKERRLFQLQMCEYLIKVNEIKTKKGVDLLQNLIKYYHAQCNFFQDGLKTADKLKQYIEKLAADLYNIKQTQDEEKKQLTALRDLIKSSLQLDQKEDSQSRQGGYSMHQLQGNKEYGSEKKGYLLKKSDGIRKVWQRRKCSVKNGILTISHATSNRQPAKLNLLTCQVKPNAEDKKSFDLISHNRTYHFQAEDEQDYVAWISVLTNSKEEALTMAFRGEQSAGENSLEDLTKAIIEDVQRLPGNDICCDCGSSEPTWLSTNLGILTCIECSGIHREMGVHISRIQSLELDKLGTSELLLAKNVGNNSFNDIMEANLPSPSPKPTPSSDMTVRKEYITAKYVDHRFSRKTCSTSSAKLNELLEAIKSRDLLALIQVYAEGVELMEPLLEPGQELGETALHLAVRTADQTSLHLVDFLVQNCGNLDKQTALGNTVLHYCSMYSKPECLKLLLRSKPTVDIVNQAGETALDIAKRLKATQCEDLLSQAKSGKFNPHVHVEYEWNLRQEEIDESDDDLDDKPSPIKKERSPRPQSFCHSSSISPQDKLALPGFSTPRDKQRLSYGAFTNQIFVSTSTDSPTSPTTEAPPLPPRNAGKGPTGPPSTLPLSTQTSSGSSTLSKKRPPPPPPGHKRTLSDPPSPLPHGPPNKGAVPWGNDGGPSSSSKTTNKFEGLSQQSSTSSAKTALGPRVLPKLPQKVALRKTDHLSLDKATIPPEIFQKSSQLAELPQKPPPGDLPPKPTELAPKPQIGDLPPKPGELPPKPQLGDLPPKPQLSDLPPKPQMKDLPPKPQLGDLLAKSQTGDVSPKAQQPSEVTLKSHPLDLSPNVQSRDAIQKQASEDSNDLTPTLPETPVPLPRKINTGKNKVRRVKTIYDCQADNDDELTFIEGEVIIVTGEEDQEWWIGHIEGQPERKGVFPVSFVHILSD

[8] = target: T3, Calpain-2 catalytic subunit (Sus scrofa, UniProt P43367); assay: pig calpain II inhibitor potency, dose response, biochemical, fluorogenic peptide substrate (AID 1420); type: functional
T3 sequence (P43367 whole entry): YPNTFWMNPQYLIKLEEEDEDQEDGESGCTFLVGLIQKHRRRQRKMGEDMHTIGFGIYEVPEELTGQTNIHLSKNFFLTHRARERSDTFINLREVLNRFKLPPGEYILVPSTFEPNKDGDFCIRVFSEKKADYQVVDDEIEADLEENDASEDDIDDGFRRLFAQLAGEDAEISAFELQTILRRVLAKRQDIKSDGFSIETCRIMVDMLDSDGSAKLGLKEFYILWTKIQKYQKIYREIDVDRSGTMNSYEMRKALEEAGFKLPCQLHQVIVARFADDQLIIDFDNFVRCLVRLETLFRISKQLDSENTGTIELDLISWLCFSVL

Cytochrome P450 2C9 = Cytochrome P450 2C9 (Homo sapiens, UniProt P11712)
Sequence of Cytochrome P450 2C9 (P11712 whole entry, the tested form may be a part): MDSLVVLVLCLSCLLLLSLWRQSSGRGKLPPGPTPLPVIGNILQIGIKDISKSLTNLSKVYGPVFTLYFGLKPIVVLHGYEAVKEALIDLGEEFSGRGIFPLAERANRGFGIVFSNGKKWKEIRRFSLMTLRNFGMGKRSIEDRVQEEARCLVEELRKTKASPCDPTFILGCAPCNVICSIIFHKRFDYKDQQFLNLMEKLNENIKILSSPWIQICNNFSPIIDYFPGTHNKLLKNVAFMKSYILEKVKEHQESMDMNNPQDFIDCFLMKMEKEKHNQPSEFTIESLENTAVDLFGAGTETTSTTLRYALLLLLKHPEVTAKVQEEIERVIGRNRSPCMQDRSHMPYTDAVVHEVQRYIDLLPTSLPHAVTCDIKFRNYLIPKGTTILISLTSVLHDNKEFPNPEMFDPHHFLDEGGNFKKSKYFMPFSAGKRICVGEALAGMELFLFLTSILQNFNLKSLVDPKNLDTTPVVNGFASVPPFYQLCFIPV

[9] = off-target signal loss in HeLa-CEM21 co-culture – HeLa F-luc CTL cells, cherry-picked, counter-screen for HIV-1 Env fusion inhibitor project, dose response (AID 652040); type: functional, cell-based;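 further: potency for signal decrease marking cytotoxic or nonspecific inhibition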
[10] = inhibitors of clade B AD8 Env fusion, dose response, cell-based, cherry-pick (AID 652062); type: functional;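 further: luciferase signal from cell-cell fusion driven by HIV-1 clade B AD8 Env; potency is for inhibitors of fusion seen as a drop in luminescence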
[11] = target: T4, RNA-binding protein pos-1 (Caenorhabditis elegans, UniProt G5EF15); assay: inhibitors of POS-1/mex-3 RNA binding, dose response, biochemical, fluorescence polarization (AID 1964);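 further: purified POS-1 fused to maltose binding protein made in E. coli; potency of compounds blocking POS-1 binding to fluorescent RNA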
T4 sequence (G5EF15 whole entry): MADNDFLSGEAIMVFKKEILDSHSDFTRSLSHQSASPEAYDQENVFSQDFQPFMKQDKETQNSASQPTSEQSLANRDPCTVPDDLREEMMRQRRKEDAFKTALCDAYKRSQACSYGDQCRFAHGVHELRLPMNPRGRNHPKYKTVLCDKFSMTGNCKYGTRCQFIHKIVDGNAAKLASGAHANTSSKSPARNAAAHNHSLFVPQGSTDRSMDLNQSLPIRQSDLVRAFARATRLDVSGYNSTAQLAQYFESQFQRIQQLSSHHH

[12] = target: T5, Zinc finger protein mex-5 (Caenorhabditis elegans, UniProt Q9XUB2); assay: MEX-5/TCR-2 RNA interaction inhibitors, dose response, biochemical, C. elegans, fluorescence polarization (AID 1960)
T5 sequence (Q9XUB2 whole entry): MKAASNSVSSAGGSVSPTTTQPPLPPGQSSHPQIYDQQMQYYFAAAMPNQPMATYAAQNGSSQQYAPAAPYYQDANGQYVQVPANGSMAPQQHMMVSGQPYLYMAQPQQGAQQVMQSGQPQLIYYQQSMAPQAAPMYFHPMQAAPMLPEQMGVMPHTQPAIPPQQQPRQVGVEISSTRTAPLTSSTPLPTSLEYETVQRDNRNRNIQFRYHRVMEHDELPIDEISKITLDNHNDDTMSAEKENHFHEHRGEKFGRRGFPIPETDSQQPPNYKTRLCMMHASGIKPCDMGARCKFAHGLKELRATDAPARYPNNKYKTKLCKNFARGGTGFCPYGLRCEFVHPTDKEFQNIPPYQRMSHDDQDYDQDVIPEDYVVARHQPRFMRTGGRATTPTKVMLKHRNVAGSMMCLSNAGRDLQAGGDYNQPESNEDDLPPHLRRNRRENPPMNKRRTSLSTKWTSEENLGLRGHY

O=C(Nc1cccc([N+](=O)[O-])c1)c1ccc([N+](=O)[O-])o1
EC50 [1]: > 91.2 µM (inactive)
CC50 (Vero): 12 µM (active)
EC50 [2]: > 104 µM (inactive)
EC50 [3]: > 91.2 µM (inactive)

O=C1NC(=O)/C(=C/c2c(O)ccc3ccccc23)N1
IC50 [4]: 6.2 µM (active)
IC50 [5]: 4.34 µM (active)

Cc1ccc(N=C(S)N(C)Cc2cn(C)c3ccccc23)cc1
AC50 [6]: 78.8 µM (active)

O=C(Nc1ccc2oc(=O)ccc2c1)c1ccc(-c2ccc(Cl)cc2)o1
IC50 [7]: 9.51 µM (active)
IC50 [8]: 18.2 µM (not active)

C=C1C(=O)[C@]23C[C@H]1CC[C@H]2[C@]1(C)[C@@H](O)CC[C@@](C)(C(=O)O)[C@H]1C[C@@H]3O [GEOPYXIN A]
EC50 [1]: > 91.1 µM (inactive)
EC50 [3]: > 91.1 µM (inactive)

Nc1nnc(SCCCOc2ccc(F)cc2)s1
AC50 [6]: 46.6 µM (active)

O=C(Nc1ccc(S(=O)(=O)N2CCCC2)cc1)c1ccc(CN2CCOCC2)cc1
AC50 (Cytochrome P450 2C9): 10 µM (inconclusive)
AC50 [9]: > 70 µM (inactive)
AC50 [10]: 6.7 µM (active)

COc1cc2sc3ccc(C#Cc4ccccn4)cc3c(=O)c2cc1OC
IC50 [7]: 22.9 µM (inactive)

COc1ccc2nc3ccccc3nc2c1NC(=O)c1ccc(Br)cc1
IC50 [4]: 10 µM (active)
EC50 [11]: 6.41 µM (active)
EC50 [12]: 6.66 µM (inconclusive)
IC50 [5]: 9.47 µM (active)
